Test results reported in patent US20260049068A1, “Substituted Tetrazolyl Compounds Useful as T Cell Activators” (BRISTOL-MYERS SQUIBB COMPANY, priority 2022, published 2026).

Key:
[1] = target: DGKα-YFP in Jurkat cells (Homo sapiens (Human), UniProt P23743); assay: In vitro DGKα translocation assay; assay type: cell-based; conditions: 1 hour at 37° C., top concentration 10 μM, read-out: DGKalpha Translocation EC50
Description: Jurkat cells were transduced with lentiviral constructs overexpressing DGKα-YFP (N-terminal tagged), selected by puromycin, and were FACs sorted to establish stable lines expressing each isoform (Jurkat-DGKα-YFP=BXA-212700-01-001, Jurkat-DGKz-YFP=BXA-212701-01-001). Cell lines were maintained in growth media (RPMI supplemented with 10% FBS and pen/strep). All translocation assays were run in assay media (RPMI supplemented with 10% FBS and no antibiotics).
For translocation assays cells were plated onto Perkin Elmer CellCarrier-384 Ultra Microplates (Perkin Elmer cat #6057500) at a density of 30,000 cells/well, in a volume of 40 μL of assay media. Compounds were then transferred to the cells by an Echo Acoustic Liquid Handler (Echo 655). […] Treated cells were then incubated at 37° C. for 1 hour. Cells were then fixed with 4% formaldehyde (Thermo cat #28906) for 15 minutes, centrifuged briefly to increase cell retention (250 rpm for 5 minutes), and then washed 3× with 50 μL PBS. Cells were then stained with Hoechst, and washed 2× with 50 ul PBS. Next, 50 μL PBS was added to each well, plates were sealed, and plates were imaged on an Opera Phenix High Content screening system. Imaging was done with the 40× water objective. The YFP channel was set at 100% power for […], 10 regions/well were imaged and analyzed. Data analysis was done with Columbus Image Analysis software (Perk-in Elmer).

[2] = target: Full length human DGKα (Homo sapiens (Human), UniProt P23743);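 also: ADP-Glo luminescence assay of ADP formed by 5 nM full-length DGKα on extruded PS/DAG/PC liposomes with 150 µM ATP, 1 h reaction, 11-point inhibitor titration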
Full length human DGKα, sequence (P23743 other isoform, or with tags, fused parts or gaps): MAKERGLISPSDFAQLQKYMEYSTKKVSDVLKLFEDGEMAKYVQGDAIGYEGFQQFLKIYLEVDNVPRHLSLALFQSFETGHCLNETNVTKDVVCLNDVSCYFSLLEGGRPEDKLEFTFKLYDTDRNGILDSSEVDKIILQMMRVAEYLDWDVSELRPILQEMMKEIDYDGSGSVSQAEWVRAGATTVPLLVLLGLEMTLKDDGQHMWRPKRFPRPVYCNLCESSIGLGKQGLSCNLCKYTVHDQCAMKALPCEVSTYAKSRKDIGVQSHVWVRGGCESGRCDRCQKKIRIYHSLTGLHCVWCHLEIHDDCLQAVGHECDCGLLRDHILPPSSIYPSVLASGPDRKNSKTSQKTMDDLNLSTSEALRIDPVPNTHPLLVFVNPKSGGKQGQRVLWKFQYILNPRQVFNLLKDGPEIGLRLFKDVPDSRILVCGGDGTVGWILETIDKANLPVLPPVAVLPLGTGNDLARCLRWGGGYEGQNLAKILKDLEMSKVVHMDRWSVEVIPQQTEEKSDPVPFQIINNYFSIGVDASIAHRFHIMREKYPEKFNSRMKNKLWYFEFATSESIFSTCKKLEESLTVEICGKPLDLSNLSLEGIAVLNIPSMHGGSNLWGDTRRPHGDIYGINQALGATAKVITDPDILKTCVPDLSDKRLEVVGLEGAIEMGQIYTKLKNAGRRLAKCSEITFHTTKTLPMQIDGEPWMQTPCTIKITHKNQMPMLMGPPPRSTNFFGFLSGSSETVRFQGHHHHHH
Protocol: The DGKα (Full Length and Near Full Length) ADP Glo assays were performed using an extruded liposome prep at either 5% DAG or 10% DAG. The Enzymatic reactions were carried out in 50 mM MOPS pH 7.5, 100 mM NaCl, 10 mM MgCl2, 1 μM CaCl2, and 1 mM DTT (assay buffer). The lipid substrate concentrations were 1.9 mM PS, either 0.25 mM DAG (5% liposome prep) or 0.5 mM DAG (10% liposome prep), and 2.7 mM PC for the extruded liposome reactions. The reactions were carried out at 150 μM ATP. The enzyme concentrations for the DGKα(Near Full Length) and DGKα(FL) were 5 nM.
The compound inhibition studies were carried out as follows: 25 nL droplets of each test compound (11 point, 3-fold dilution series for each compound) solubilized in DMSO were transferred to wells of a white 1536 well plate (Corning 3725). A 5 mL enzyme/substrate (substrate being the 5× or 10× liposome preparation) solution at 2× final reaction concentrations was prepared by combining 5 ml of the extruded liposome preparation with 10 nM (2× final) DGKα(Near Full Length) or DGKα(Full Length) prepared as described below) and incubated at room temperature for 10 minutes. Next, 1 μL of the 2× enzyme/substrate solution was added to wells containing the test compound and reactions were initiated with the addition of 1 μL 300 uM ATP. Substrate only was added to DMSO only wells for background measurements. The reactions were allowed to proceed for 1 hr, after which 2 μL Glo Reagent (Promega V9101) was added and incubated for 40 minutes. Next, 4 μL Kinase Detection Reagent was added and incubated for 30 minutes. Luminescence was recorded using an EnVision microplate reader. […] The compounds were evaluated at 11 concentrations to determine IC50.

[3] = target: Near full length human DGKα(S9-S727) (Homo sapiens (Human), UniProt P23743); assay: DGKα (Near Full Length) ADP Glo assay; assay type: biochemical; conditions: extruded liposomes 5% or 10% DAG, 150 μM ATP, 5 nM enzyme; read-out: Near Full Length DGKalpha ADPGLO IC50
Near full length human DGKα(S9-S727), sequence (P23743 9-727): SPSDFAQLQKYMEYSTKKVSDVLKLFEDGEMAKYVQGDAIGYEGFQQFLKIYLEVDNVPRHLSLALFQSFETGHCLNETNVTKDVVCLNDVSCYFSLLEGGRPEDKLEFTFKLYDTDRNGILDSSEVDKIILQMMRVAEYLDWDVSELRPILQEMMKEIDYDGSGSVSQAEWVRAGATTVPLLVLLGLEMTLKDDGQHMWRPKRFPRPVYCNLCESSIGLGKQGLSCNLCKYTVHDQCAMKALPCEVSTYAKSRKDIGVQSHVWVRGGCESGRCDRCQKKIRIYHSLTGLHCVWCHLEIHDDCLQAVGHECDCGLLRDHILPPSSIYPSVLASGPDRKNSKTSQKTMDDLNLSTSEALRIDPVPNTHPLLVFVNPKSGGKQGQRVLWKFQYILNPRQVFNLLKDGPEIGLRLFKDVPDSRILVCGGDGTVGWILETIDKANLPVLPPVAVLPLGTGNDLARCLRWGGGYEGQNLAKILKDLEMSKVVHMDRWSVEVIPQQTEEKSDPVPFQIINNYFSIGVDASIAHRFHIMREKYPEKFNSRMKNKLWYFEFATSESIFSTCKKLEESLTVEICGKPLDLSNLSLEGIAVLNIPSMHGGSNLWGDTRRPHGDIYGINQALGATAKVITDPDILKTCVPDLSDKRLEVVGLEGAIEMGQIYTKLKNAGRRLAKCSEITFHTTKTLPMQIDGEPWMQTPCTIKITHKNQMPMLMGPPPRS
Protocol: The reactions were carried out at 150 μM ATP.
Luminescence was recorded using an EnVision microplate reader.

DGKα-YFP in Jurkat cells, sequence (P23743 whole entry, canonical isoform): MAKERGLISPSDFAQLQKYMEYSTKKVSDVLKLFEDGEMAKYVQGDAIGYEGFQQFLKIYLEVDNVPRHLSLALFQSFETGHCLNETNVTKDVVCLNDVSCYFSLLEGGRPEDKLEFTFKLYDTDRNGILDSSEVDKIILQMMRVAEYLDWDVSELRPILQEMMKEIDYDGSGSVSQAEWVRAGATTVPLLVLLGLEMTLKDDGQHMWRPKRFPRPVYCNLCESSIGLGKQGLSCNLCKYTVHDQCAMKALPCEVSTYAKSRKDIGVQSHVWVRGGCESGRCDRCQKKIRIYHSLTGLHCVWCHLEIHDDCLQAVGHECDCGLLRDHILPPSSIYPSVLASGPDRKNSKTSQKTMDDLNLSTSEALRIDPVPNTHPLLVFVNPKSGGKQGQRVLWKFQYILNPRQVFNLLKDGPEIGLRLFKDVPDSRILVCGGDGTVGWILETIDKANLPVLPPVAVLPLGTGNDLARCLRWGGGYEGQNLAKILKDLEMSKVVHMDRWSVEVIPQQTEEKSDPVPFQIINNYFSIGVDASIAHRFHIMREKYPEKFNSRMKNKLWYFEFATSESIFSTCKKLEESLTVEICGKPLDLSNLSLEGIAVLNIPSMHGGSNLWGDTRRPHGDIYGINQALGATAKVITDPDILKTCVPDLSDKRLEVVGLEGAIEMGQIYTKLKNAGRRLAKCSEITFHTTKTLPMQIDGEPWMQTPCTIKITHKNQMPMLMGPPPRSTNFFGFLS

CC1CCC(N(C)Cc2nnnn2-c2cccc([N+](=O)[O-])c2)CC1 (stereo not drawn) [Example 2, N,4-dimethyl-N-((1-(3-nitrophenyl)-1H-tetrazol-5-yl)methyl)cyclohexan-1-amine]
EC50 [1]: 0.3 µM

CN(Cc1nnnn1-c1ccc(C(F)(F)F)c(C#N)c1)C1CCCCC1 [Example 4, 5-(5-((cyclohexyl(methyl)amino)methyl)-1H-tetrazol-1-yl)-2-(trifluoromethyl)benzonitrile]
EC50 [1]: 0.82 µM
IC50 [2]: 0.027 µM
IC50 [3]: 0.28 µM

CCCCN(Cc1nnnn1-c1ccc(Cl)c(C#N)c1)C1CCCCC1 [Example 5, 5-(5-((butyl(cyclohexyl)amino)methyl)-1H-tetrazol-1-yl)-2-chlorobenzonitrile]
EC50 [1]: 1.2 µM
IC50 [2]: 1.1 µM
IC50 [3]: 1.4 µM

C=CCN(Cc1nnnn1-c1ccc(Cl)c(C#N)c1)C1CCCCC1 [Example 6, 5-(5-((allyl(cyclohexyl)amino)methyl)-1H-tetrazol-1-yl)-2-chlorobenzonitrile]
EC50 [1]: 0.19 µM
IC50 [2]: 0.11 µM
IC50 [3]: 0.1 µM

N#Cc1cc(-n2nnnc2CN(CCO)C2CCCCC2)ccc1Cl [Example 7, 2-chloro-5-(5-((cyclohexyl(2-hydroxyethyl)amino)methyl)-1H-tetrazol-1-yl)benzonitrile]
EC50 [1]: > 10 µM
IC50 [2]: 4.7 µM
IC50 [3]: 3.4 µM

CCCN(Cc1nnnn1-c1ccc(Cl)c(C#N)c1)C1CCCCC1 [Example 8, 2-chloro-5-(5-((cyclohexyl(propyl)amino)methyl)-1H-tetrazol-1-yl)benzonitrile]
EC50 [1]: 0.35 µM
IC50 [2]: 1.5 µM
IC50 [3]: 2.1 µM

CC(C)CN(C)Cc1nnnn1-c1ccc(Cl)c(C#N)c1 [Example 9, 2-chloro-5-(5-((isobutyl(methyl)amino)methyl)-1H-tetrazol-1-yl)benzonitrile]
EC50 [1]: 1.2 µM
IC50 [2]: 5.3 µM
IC50 [3]: 3.2 µM

N#Cc1cc(-n2nnnc2CN(CC2CC2)C2CCCCC2)ccc1Cl [Example 10, 2-chloro-5-(5-((cyclohexyl(cyclopropylmethyl)amino)methyl)-1H-tetrazol-1-yl)benzonitrile]
EC50 [1]: 0.63 µM
IC50 [2]: 0.25 µM
IC50 [3]: 0.24 µM

CC(C)N(C)Cc1nnnn1-c1ccc(Cl)c(C#N)c1 [Example 11, 2-chloro-5-(5-((isopropyl(methyl)amino)methyl)-1H-tetrazol-1-yl)benzonitrile]
EC50 [1]: > 10 µM
IC50 [2]: 8.8 µM
IC50 [3]: 8.6 µM

CC(C)N(Cc1nnnn1-c1ccc(Cl)c(C#N)c1)C1CCCCC1 [Example 12, 2-chloro-5-(5-((cyclohexyl(isopropyl)amino)methyl)-1H-tetrazol-1-yl)benzonitrile]
EC50 [1]: 1.7 µM
IC50 [2]: 7.9 µM
IC50 [3]: 11 µM

C=CCN(Cc1nnnn1-c1ccc(Cl)c(C#N)n1)C1CCCCC1 [Example 17, 6-(5-((allyl (cyclohexyl)amino)methyl)-1H-tetrazol-1-yl)-3-chloropicolinonitrile]
EC50 [1]: 0.47 µM

CN(Cc1nnnn1-c1cc(C#N)cc([N+](=O)[O-])c1)C1CCCCC1 [Example 27, 3-(5-((cyclohexyl(methyl)amino)methyl)-1H-tetrazol-1-yl)-5-nitrobenzonitrile]
EC50 [1]: 0.49 µM

CN(Cc1nnnn1-c1ccc(Cl)cc1C#N)C1CCCCC1 [Example 30, 5-chloro-2-(5-((cyclohexyl(methyl)amino)methyl)-1H-tetrazol-1-yl)benzonitrile]
EC50 [1]: > 10 µM

COc1ccc(-n2nnnc2CN(C)C2CCCCC2)cc1 [Example 31, N-((1-(4-methoxyphenyl)-1H-tetrazol-5-yl)methyl)-N-methylcyclohexanamine]
IC50 [2]: 56 µM

CN(Cc1nnnn1-c1ccc([N+](=O)[O-])cc1)C1CCCCC1 [Example 32, N-methyl-N-((1-(4-nitrophenyl)-1H-tetrazol-5-yl)methyl)cyclohexanamine]
IC50 [2]: 13 µM

COC(=O)c1cccc(-n2nnnc2CN(C)C2CCCCC2)c1 [Example 33, methyl 3-(5-((cyclohexyl(methyl)amino)methyl)-1H-tetrazol-1-yl)benzoate]
IC50 [2]: > 240 µM

CN(Cc1nnnn1-c1cccc(C(=O)O)c1)C1CCCCC1 [Example 34, 3-(5-((cyclohexyl (methyl)amino)methyl)-1H-tetrazol-1-yl)benzoic acid]
IC50 [2]: > 81 µM

Cc1cccc(-n2nnnc2CN(C)C2CCCCC2)c1 [Example 35, N-methyl-N-((1-(m-tolyl)-1H-tetrazol-5-yl)methyl)cyclohexanamine]
IC50 [2]: 50 µM

CN(Cc1nnnn1-c1cccc(Cl)c1)C1CCCCC1 [Example 36, N-((1-(3-chlorophenyl)-1H-tetrazol-5-yl)methyl)-N-methylcyclohexanamine]
IC50 [2]: 11 µM

O=[N+]([O-])c1cccc(-n2nnnc2CN(CCO)C2CCCCC2)c1 [Example 43, 2-(cyclohexyl((1-(3-nitrophenyl)-1H-tetrazol-5-yl)methyl)amino)ethan-1-ol]
IC50 [2]: 72 µM

CN(Cc1nnnn1-c1cccc(Br)c1)C1CCCCC1 [Example 45, N-((1-(3-bromophenyl)-1H-tetrazol-5-yl)methyl)-N-methylcyclohexanamine]
IC50 [2]: 12 µM

CN(Cc1nnnn1-c1ccc(F)nc1)C1CCCCC1 [Example 46, N-((1-(6-fluoropyridin-3-yl)-1H-tetrazol-5-yl)methyl)-N-methylcyclohexanamine]
IC50 [2]: 16 µM

CN(Cc1nnnn1-c1cc(C#N)c(=O)n(C)c1)C1CCCCC1 [Example 48, 5-(5-((cyclohexyl(methyl)amino)methyl)-1H-tetrazol-1-yl)-1-methyl-2-oxo-1,2-dihydropyridine-3-carbonitrile]
IC50 [2]: 56 µM

CN(Cc1nnnn1-c1ccc(Cl)c(C(F)(F)F)c1)C1CCCCC1 [Example 49, N-((1-(4-chloro-3-(trifluoromethyl)phenyl)-1H-tetrazol-5-yl)methyl)-N-methylcyclohexanamine]
IC50 [2]: 17 µM

CC1CCC(C)N1Cc1nnnn1-c1ccc(Cl)c(C#N)c1 (stereo not drawn) [Example 50, 2-chloro-5-(5-((2,5-dimethylpyrrolidin-1-yl)methyl)-1H-tetrazol-1-yl)benzonitrile]
IC50 [2]: 54 µM

CCOC(=O)C1CCC(N(Cc2nnnn2-c2ccc(Cl)c(C#N)c2)C2CC2)CC1 (stereo not drawn) [Example 51, ethyl 4-(((1-(4-chloro-3-cyanophenyl)-1H-tetrazol-5-yl)methyl)(cyclopropyl)amino) cyclohexane-1-carboxylate]
IC50 [2]: 13 µM

N#Cc1cc(-n2nnnc2CN(CC(O)c2ccccc2)C2CCCCC2)ccc1Cl (stereo not drawn) [Example 52, 2-chloro-5-(5-((cyclohexyl(2-hydroxy-2-phenylethyl)amino)methyl)-1H-tetrazol-1-yl)benzonitrile]
IC50 [2]: 11 µM

CCCN(Cc1nnnn1-c1ccc(Cl)c(C#N)n1)C1CCCCC1 [Example 53, 3-chloro-6-(5-((cyclohexyl(propyl)amino)methyl)-1H-tetrazol-1-yl)picolinonitrile]
IC50 [2]: 15 µM

N#Cc1nc(-n2nnnc2CN(CCCNC(=O)c2ccccc2)C2CCCCC2)ccc1Cl [Example 54, N-(3-(((1-(5-chloro-6-cyanopyridin-2-yl)-1H-tetrazol-5-yl)methyl)(cyclohexyl)amino)propyl)benzamide]
IC50 [2]: 70 µM

CC(C)N(Cc1nnnn1-c1ccc(Cl)c(C#N)n1)C1CCCCC1 [Example 55, 3-chloro-6-(5-((cyclohexyl(isopropyl)amino)methyl)-1H-tetrazol-1-yl)picolinonitrile]
IC50 [2]: 46 µM

CCOC(=O)C1CCC(N(Cc2nnnn2-c2ccc(Cl)c(C#N)n2)C2CC2)CC1 (stereo not drawn) [Example 56, ethyl 4-(((1-(5-chloro-6-cyanopyridin-2-yl)-1H-tetrazol-5-yl)methyl)(cyclopropyl)amino) cyclohexane-1-carboxylate]
IC50 [2]: 11 µM

C[C@]1(O)CC[C@@H](N(Cc2nnnn2-c2ccc(Cl)c(C#N)n2)C2CC2)CC1 [Example 59, 3-chloro-6-(5-((cyclopropyl((1s,4s)-4-hydroxy-4-methylcyclohexyl)amino)methyl)-1H-tetrazol-1-yl)picolinonitrile]
IC50 [2]: 180 µM

CC(C)N(C)Cc1nnnn1-c1ccc(Cl)c(C#N)n1 [Example 60, 3-chloro-6-(5-((isopropyl(methyl)amino)methyl)-1H-tetrazol-1-yl)picolinonitrile]
IC50 [2]: 67 µM

CC(C)CN(C)Cc1nnnn1-c1ccc(Cl)c(C#N)n1 [Example 61, 3-chloro-6-(5-((isobutyl(methyl)amino)methyl)-1H-tetrazol-1-yl)picolinonitrile]
IC50 [2]: 24 µM

N#Cc1nc(-n2nnnc2CN(CCO)C2CCCCC2)ccc1Cl [Example 62, 3-chloro-6-(5-((cyclohexyl(2-hydroxyethyl)amino)methyl)-1H-tetrazol-1-v) picolinonitrile]
IC50 [2]: 110 µM

CCCCN(Cc1nnnn1-c1ccc(Cl)c(C#N)n1)C1CCCCC1 [Example 63, 6-(5-((butyl(cyclohexyl)amino)methyl)-1H-tetrazol-1-yl)-3-chloropicolinonitrile]
IC50 [2]: 15 µM
